Laboratory results from US10407400B2, “Compounds, compositions, and methods for modulating sweet taste” (Chromocell Corporation, priority 2015, dated 2019).

Tested on: perception of sweet taste of High Fructose Corn Syrup (HFCS)
Experiment: Two-alternative forced choice (2AFC) sip and spit sensory test of perceived sweetness in Lemon Lime beverage
Type: in vivo, humans
Conditions: Lemon Lime beverage pH 3.1
Procedure: Effect of Test Compounds on the Perception of Sweet Taste of High Fructose Corn Syrup (HFCS) Two-alternative Forced Choice Method (2AFC). The effect of the test compounds and combinations of test compounds on the perception of the sweet taste of a flavored beverage (referred to as Lemon Lime henceforth) of sweetener in humans was evaluated using a two-alternative forced choice “sip and spit” method (2AFC). The Lemon Lime solutions were prepared by adding sucrose equivalent (SE) quantities of high fructose corn syrup (HFCS) (by weight), to water to achieve the desired concentration. The lemon lime pH is 3.1. Compounds were first prepared as a 500-fold concentrated stock solution in 100% ethanol. These concentrated stocks were then added to the aqueous sweetener solutions to result in a final ethanol concentration of 0.2%. […] In this manner, compounds were not assessed simply for an increase in perceived sweetness, but a significant increase in perceived sweetness above the positive control. […] Data were analyzed using binomial probabilities. Approximate levels of sweetness enhancement in column 5 of Table 1 were calculated as follows: Approximate levels of sweetness enhancement=Sweetener concentration of positive control surpassed by the test sample, divided by sweetener concentration for compound-containing sample (e.g. 1.5×=7.5brix HFCS/5brix HFCS).

Structure (SMILES): COc1cc(C2CC(=O)Oc3cc(C)cc(O)c32)ccc1O (racemic) [Compound 1, 5-hydroxy-4-(4-hydroxy-3-methoxyphenyl)-7-methylchroman-2-one]
- Fold increase in perceived sweetness (positive control 10brix HFCS surpassed, divided by test sample 7.14brix HFCS, compound concentration 25 ppm (1) or 41.25 ppm (1 & 4)): >1.4X
- Compound concentration with positive 2AFC results (test sample 7.14brix HFCS with compound surpassed positive control 10brix HFCS, taste panelists n≥15, 0.2% ethanol): 25 ppm
